Patent publication US20150105252A1, “SUBSTITUTED PYRAZOLES AS HERBICIDES” (E I DU PONT DE NEMOURS AND COMPANY, priority 2013, published 2015)

Key:
wheat, spring = test: Test D preemergence; type: in vivo, Triticum aestivum; conditions: Preemergence, scale 0 to 100
Description: (§1) Seeds of plant species selected from bluegrass (annual bluegrass, Poa annua), blackgrass (Alopecurus myosuroides), canarygrass (littleseed canarygrass, Phalaris minor), chickweed (common chickweed, Stellaria media), galium (catchweed bedstraw, Galium aparine), bromegrass, downy (downy bromegrass, Bromus tectorum), field poppy (Papaver rhoeas), field violet (Viola arvensis), foxtail, green (green foxtail, Setaria viridis), deadnettle (henbit deadnettle, Lamium amplexicaule), ryegrass, Italian (Italian ryegrass, Lolium multiflorum), kochia (Kochia scoparia), lambsquarters (Chenopodium album), oilseed rape (Brassica napus), pigweed (redroot pigweed, Amaranthus retroflexus), chamomile (scentless chamomile, Matricaria inodora), speedwell (bird's-eye speedwell, Veronica persica), barley, spring (spring barley, Hordeum vulgare), wheat, spring (spring wheat, Triticum aestivum), buckwheat, wild (wild buckwheat, Polygonum convolvulus), mustard, wild (wild mustard, Sinapis arvensis), oat, wild (wild oat, Avena fatua), radish, wild (wild radish, Raphanus raphanistrum), windgrass (Apera spica-venti), Russian thistle (Salsola kali), barley, winter (winter barley, Hordeum vulgare), and wheat, winter (winter wheat, Triticum aestivum) were planted into a silt loam soil and treated preemergence with test chemicals formulated in a non-phytotoxic solvent mixture which included a surfactant.
(§2) At the same time, these species were planted in pots containing Redi-Earth® planting medium (Scotts Company, 14111 Scottslawn Road, Marysville, Ohio 43041) comprising spaghnum peat moss, vermiculite, wetting agent and starter nutrients and treated with postemergence applications of the test chemicals formulated in the same manner. Plants ranged in height from 2 to 18 cm (1- to 4-leaf stage). Treated plants and controls were maintained in a controlled growth environment for 14 to 21 days after which time all species were compared to controls and visually evaluated. Plant response ratings, summarized in Table D, are based on a scale of 0 to 100 where 0 is no effect and 100 is complete control. A dash (-) response means no test result.

wheat, winter = test: Test D preemergence; type: in vivo, Triticum aestivum; conditions: Preemergence, scale 0 to 100
Description: as §1, §2

chickweed [1] = test: Test D preemergence; type: in vivo, Stellaria media; conditions: Preemergence, scale 0 to 100
Description: as §1, §2

foxtail, green = test: Test D preemergence; type: in vivo, Setaria viridis; conditions: Preemergence, scale 0 to 100
Description: as §1, §2

chickweed [2] = test: Test D postemergence; type: in vivo, Stellaria media; conditions: scale 0 to 100
Description: as §1, §2

radish, wild = test: Test D preemergence; type: in vivo, Raphanus raphanistrum; conditions: Preemergence, scale 0 to 100
Description: as §1, §2

deadnettle [3] = test: Test D postemergence; type: in vivo, Lamium amplexicaule; conditions: scale 0 to 100
Description: as §1, §2

bromegrass, downy = test: Test D preemergence; type: in vivo, Bromus tectorum; conditions: Preemergence, scale 0 to 100
Description: as §1, §2

blackgrass [4] = test: Test D preemergence; type: in vivo, Alopecurus myosuroides; conditions: Preemergence, scale 0 to 100
Description: as §1, §2

speedwell = test: Test D postemergence; type: in vivo, Veronica persica; conditions: scale 0 to 100
Description: as §1, §2

deadnettle [5] = test: Test D preemergence; type: in vivo, Lamium amplexicaule; conditions: Preemergence, scale 0 to 100
Description: as §1, §2

blackgrass [6] = test: Test D postemergence; type: in vivo, Alopecurus myosuroides; conditions: scale 0 to 100
Description: as §1, §2

bluegrass = test: Test D postemergence; type: in vivo, Poa annua; conditions: scale 0 to 100
Description: as §1, §2

oilseed rape = test: Test D preemergence; type: in vivo, Brassica napus; conditions: Preemergence, scale 0 to 100
Description: as §1, §2

pigweed = test: Test D postemergence; type: in vivo, Amaranthus retroflexus; conditions: scale 0 to 100
Description: as §1, §2

In the case of `CCCc1cc(C(=O)NC(C)C)nn1Cc1cc(C(F)(F)F)nn1C` [Compound 201], the “Plant response rating, Wheat, Spring” value (wheat, spring; 62 g ai/ha) is reported as 55, the “Plant response rating, Wheat, Spring” value (wheat, spring; 125 g ai/ha) is reported as 75 and the “Plant response rating, Wheat, Spring” value (wheat, spring; 250 g ai/ha) is reported as 100. For the same molecule, the “Plant response rating, Wheat, Winter” value (wheat, winter; 62 g ai/ha) was 40, the “Plant response rating, Wheat, Winter” value (wheat, winter; 125 g ai/ha) was 70 and the “Plant response rating, Wheat, Winter” value (wheat, winter; 250 g ai/ha) was 95. For the same molecule, the “Plant response rating, Chickweed” value (chickweed [1]; 31 g ai/ha) was 80, the “Plant response rating, Chickweed” value (chickweed [1]; 62 g ai/ha) was 100 and the “Plant response rating, Chickweed” value (chickweed [1]; 125 g ai/ha) was 100. The “Plant response rating, Chickweed” value (chickweed [1]; 250 g ai/ha) was 100, the “Plant response rating, Foxtail, Green” value (foxtail, green; 62 g ai/ha) was 100 and the “Plant response rating, Foxtail, Green” value (foxtail, green; 125 g ai/ha) was 100. For the same molecule, the “Plant response rating, Foxtail, Green” value (foxtail, green; 250 g ai/ha) was 100, the “Chickweed plant response rating” value (chickweed [2]; Postemergence, 31 g ai/ha) was 55 and the “Chickweed plant response rating” value (chickweed [2]; Postemergence, 125 g ai/ha) was 70. The “Chickweed plant response rating” value (chickweed [2]; Postemergence, 250 g ai/ha) was 75, the “Chickweed plant response rating” value (chickweed [2]; postemergence, 62 g ai/ha) was 55 and the “Plant response rating, Radish, Wild” value (radish, wild; 62 g ai/ha) was 100. For the same molecule, the “Plant response rating, Radish, Wild” value (radish, wild; 125 g ai/ha) was 100, the “Plant response rating, Radish, Wild” value (radish, wild; 250 g ai/ha) was 100 and the “Deadnettle plant response rating” value (deadnettle [3]; Postemergence, 31 g ai/ha) was 55. The “Deadnettle plant response rating” value (deadnettle [3]; Postemergence, 125 g ai/ha) was 60, the “Deadnettle plant response rating” value (deadnettle [3]; Postemergence, 250 g ai/ha) was 65 and the “Deadnettle plant response rating” value (deadnettle [3]; postemergence, 62 g ai/ha) was 55. For the same molecule, the “Plant response rating, Bromegrass, Downy” value (bromegrass, downy; 31 g ai/ha) was 20, the “Plant response rating, Bromegrass, Downy” value (bromegrass, downy; 62 g ai/ha) was 60 and the “Plant response rating, Bromegrass, Downy” value (bromegrass, downy; 125 g ai/ha) was 70. For the same molecule, the “Plant response rating, Bromegrass, Downy” value (bromegrass, downy; 250 g ai/ha) was 100, the “Plant response rating, Blackgrass” value (blackgrass [4]; 31 g ai/ha) was 35 and the “Plant response rating, Blackgrass” value (blackgrass [4]; 62 g ai/ha) was 90. The “Plant response rating, Blackgrass” value (blackgrass [4]; 125 g ai/ha) was 100, the “Plant response rating, Blackgrass” value (blackgrass [4]; 250 g ai/ha) was 100 and the “Speedwell plant response rating” value (speedwell; Postemergence, 31 g ai/ha) was 70. For the same molecule, the “Speedwell plant response rating” value (speedwell; Postemergence, 125 g ai/ha) was 70, the “Speedwell plant response rating” value (speedwell; Postemergence, 250 g ai/ha) was 100 and the “Speedwell plant response rating” value (speedwell; postemergence, 62 g ai/ha) was 70. For the same molecule, the “Plant response rating, Deadnettle” value (deadnettle [5]; 31 g ai/ha) was 100, the “Plant response rating, Deadnettle” value (deadnettle [5]; 62 g ai/ha) was 100 and the “Plant response rating, Deadnettle” value (deadnettle [5]; 125 g ai/ha) was 100. The “Plant response rating, Deadnettle” value (deadnettle [5]; 250 g ai/ha) was 100, the “Blackgrass plant response rating” value (blackgrass [6]; Postemergence, 31 g ai/ha) was 25 and the “Blackgrass plant response rating” value (blackgrass [6]; Postemergence, 125 g ai/ha) was 50. For the same molecule, the “Blackgrass plant response rating” value (blackgrass [6]; Postemergence, 250 g ai/ha) was 65, the “Blackgrass plant response rating” value (blackgrass [6]; postemergence, 62 g ai/ha) was 25 and the “Bluegrass plant response rating” value (bluegrass; Postemergence, 31 g ai/ha) was 20. For the same molecule, the “Bluegrass plant response rating” value (bluegrass; Postemergence, 125 g ai/ha) was 35, the “Bluegrass plant response rating” value (bluegrass; Postemergence, 250 g ai/ha) was 40 and the “Bluegrass plant response rating” value (bluegrass; postemergence, 62 g ai/ha) was 20. For the same molecule, the “Plant response rating, Oilseed Rape” value (oilseed rape; 62 g ai/ha) was 100, the “Plant response rating, Oilseed Rape” value (oilseed rape; 125 g ai/ha) was 100 and the “Plant response rating, Oilseed Rape” value (oilseed rape; 250 g ai/ha) was 100. The “Pigweed plant response rating” value (pigweed; Postemergence, 31 g ai/ha) was 70, the “Pigweed plant response rating” value (pigweed; Postemergence, 125 g ai/ha) was 75 and the “Pigweed plant response rating” value (pigweed; Postemergence, 250 g ai/ha) was 80. For the same molecule, the “Pigweed plant response rating” value (pigweed; postemergence, 62 g ai/ha) was 70.

With `CCCc1cc(C(=O)NC2CC2)nn1Cc1cc(C(F)(F)F)nn1C` [Compound 202] the “Plant response rating, Wheat, Spring” value (wheat, spring; 62 g ai/ha) was 0, the “Plant response rating, Wheat, Spring” value (wheat, spring; 125 g ai/ha) was 10 and the “Plant response rating, Wheat, Spring” value (wheat, spring; 250 g ai/ha) was 25. The “Plant response rating, Wheat, Winter” value (wheat, winter; 62 g ai/ha) was 5, the “Plant response rating, Wheat, Winter” value (wheat, winter; 125 g ai/ha) was 25 and the “Plant response rating, Wheat, Winter” value (wheat, winter; 250 g ai/ha) was 60. The “Plant response rating, Chickweed” value (chickweed [1]; 31 g ai/ha) was 100, the “Plant response rating, Chickweed” value (chickweed [1]; 62 g ai/ha) was 100 and the “Plant response rating, Chickweed” value (chickweed [1]; 125 g ai/ha) was 100. The “Plant response rating, Chickweed” value (chickweed [1]; 250 g ai/ha) was 100, the “Plant response rating, Foxtail, Green” value (foxtail, green; 62 g ai/ha) was 35 and the “Plant response rating, Foxtail, Green” value (foxtail, green; 125 g ai/ha) was 80. For the same molecule, the “Plant response rating, Foxtail, Green” value (foxtail, green; 250 g ai/ha) was 100, the “Chickweed plant response rating” value (chickweed [2]; Postemergence, 31 g ai/ha) was 55 and the “Chickweed plant response rating” value (chickweed [2]; Postemergence, 125 g ai/ha) was 45. For the same molecule, the “Chickweed plant response rating” value (chickweed [2]; Postemergence, 250 g ai/ha) was 70, the “Chickweed plant response rating” value (chickweed [2]; postemergence, 62 g ai/ha) was 55 and the “Plant response rating, Radish, Wild” value (radish, wild; 62 g ai/ha) was 100. For the same molecule, the “Plant response rating, Radish, Wild” value (radish, wild; 125 g ai/ha) was 100, the “Plant response rating, Radish, Wild” value (radish, wild; 250 g ai/ha) was 100 and the “Deadnettle plant response rating” value (deadnettle [3]; Postemergence, 31 g ai/ha) was 55. The “Deadnettle plant response rating” value (deadnettle [3]; Postemergence, 125 g ai/ha) was 60, the “Deadnettle plant response rating” value (deadnettle [3]; Postemergence, 250 g ai/ha) was 65 and the “Deadnettle plant response rating” value (deadnettle [3]; postemergence, 62 g ai/ha) was 55. For the same molecule, the “Plant response rating, Bromegrass, Downy” value (bromegrass, downy; 31 g ai/ha) was 25, the “Plant response rating, Bromegrass, Downy” value (bromegrass, downy; 62 g ai/ha) was 35 and the “Plant response rating, Bromegrass, Downy” value (bromegrass, downy; 125 g ai/ha) was 35. For the same molecule, the “Plant response rating, Bromegrass, Downy” value (bromegrass, downy; 250 g ai/ha) was 50, the “Plant response rating, Blackgrass” value (blackgrass [4]; 31 g ai/ha) was 5 and the “Plant response rating, Blackgrass” value (blackgrass [4]; 62 g ai/ha) was 35. For the same molecule, the “Plant response rating, Blackgrass” value (blackgrass [4]; 125 g ai/ha) was 75, the “Plant response rating, Blackgrass” value (blackgrass [4]; 250 g ai/ha) was 80 and the “Speedwell plant response rating” value (speedwell; Postemergence, 31 g ai/ha) was 70. For the same molecule, the “Speedwell plant response rating” value (speedwell; Postemergence, 125 g ai/ha) was 75, the “Speedwell plant response rating” value (speedwell; Postemergence, 250 g ai/ha) was 100 and the “Speedwell plant response rating” value (speedwell; postemergence, 62 g ai/ha) was 70. The “Plant response rating, Deadnettle” value (deadnettle [5]; 31 g ai/ha) was 100, the “Plant response rating, Deadnettle” value (deadnettle [5]; 62 g ai/ha) was 100 and the “Plant response rating, Deadnettle” value (deadnettle [5]; 125 g ai/ha) was 100. The “Plant response rating, Deadnettle” value (deadnettle [5]; 250 g ai/ha) was 100, the “Blackgrass plant response rating” value (blackgrass [6]; Postemergence, 31 g ai/ha) was 15 and the “Blackgrass plant response rating” value (blackgrass [6]; Postemergence, 125 g ai/ha) was 25. For the same molecule, the “Blackgrass plant response rating” value (blackgrass [6]; Postemergence, 250 g ai/ha) was 35, the “Blackgrass plant response rating” value (blackgrass [6]; postemergence, 62 g ai/ha) was 15 and the “Bluegrass plant response rating” value (bluegrass; Postemergence, 31 g ai/ha) was 20. The “Bluegrass plant response rating” value (bluegrass; Postemergence, 125 g ai/ha) was 25, the “Bluegrass plant response rating” value (bluegrass; Postemergence, 250 g ai/ha) was 35 and the “Bluegrass plant response rating” value (bluegrass; postemergence, 62 g ai/ha) was 20. For the same molecule, the “Plant response rating, Oilseed Rape” value (oilseed rape; 62 g ai/ha) was 65, the “Plant response rating, Oilseed Rape” value (oilseed rape; 125 g ai/ha) was 70 and the “Plant response rating, Oilseed Rape” value (oilseed rape; 250 g ai/ha) was 90. For the same molecule, the “Pigweed plant response rating” value (pigweed; Postemergence, 31 g ai/ha) was 70, the “Pigweed plant response rating” value (pigweed; Postemergence, 125 g ai/ha) was 80 and the “Pigweed plant response rating” value (pigweed; Postemergence, 250 g ai/ha) was 85. For the same molecule, the “Pigweed plant response rating” value (pigweed; postemergence, 62 g ai/ha) was 70.
